# Data as given in PubChem BioAssay (NCI).
#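 Interpolation was linear, between the two tested concentrations surrounding the appropriate level; five concentrations were tested over 48 hours in 96-well plates. Here, GI50 denotes the concentration required for 50% inhibition of growth. TGI denotes the concentration required for complete inhibition of growth.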
# Experiments:
# Assay in all cases: DTP human tumour cell line panel, 48 h
# M14 melanoma = test system: M14 melanoma
# HT29 colon = test system: HT29 colon
# TK-10 renal = test system: TK-10 renal
# U251 CNS = test system: U251 CNS
# SK-MEL-2 melanoma = test system: SK-MEL-2 melanoma
# 786-0 renal = test system: 786-0 renal
# ACHN renal = test system: ACHN renal
# HOP-62 NSCLC = test system: HOP-62 NSCLC
# SK-OV-3 ovarian = test system: SK-OV-3 ovarian
# NCI-H522 lung = test system: NCI-H522 lung
# SW-620 colon = test system: SW-620 colon
# CAKI-1 renal = test system: CAKI-1 renal
# A498 renal = test system: A498 renal
# COLO 205 colon = test system: COLO 205 colon
# IGROV1 ovarian = test system: IGROV1 ovarian
# HCT-116 colon = test system: HCT-116 colon
# T-47D breast = test system: T-47D breast
# SNB-19 CNS = test system: SNB-19 CNS
# MDA-MB-231 breast = test system: MDA-MB-231 breast
# MOLT-4 leukemia = test system: MOLT-4 leukemia
# UACC-62 melanoma = test system: UACC-62 melanoma
# SK-MEL-5 melanoma = test system: SK-MEL-5 melanoma
# SR leukemia = test system: SR leukemia
# LOX IMVI melanoma = test system: LOX IMVI melanoma
# SF-295 CNS = test system: SF-295 CNS
# NCI-H23 lung = test system: NCI-H23 lung
# SK-MEL-28 melanoma = test system: SK-MEL-28 melanoma
# NCI-H226 lung = test system: NCI-H226 lung
# K-562 leukemia = test system: K-562 leukemia
# SNB-75 CNS = test system: SNB-75 CNS
# OVCAR-4 ovarian = test system: OVCAR-4 ovarian
# RXF 393 renal = test system: RXF 393 renal
# OVCAR-8 ovarian = test system: OVCAR-8 ovarian
# HCT-15 colon = test system: HCT-15 colon
# NCI/ADR-RES ovarian = test system: NCI/ADR-RES ovarian
# MDA-MB-435 = test system: MDA-MB-435
# A549 NSCLC = test system: A549 NSCLC
# OVCAR-5 ovarian = test system: OVCAR-5 ovarian
# HL-60(TB) leukemia = test system: HL-60(TB) leukemia
# SN12C renal = test system: SN12C renal
# UACC-257 melanoma = test system: UACC-257 melanoma
# EKVX NSCLC = test system: EKVX NSCLC
# SF-268 CNS = test system: SF-268 CNS
# CCRF-CEM leukemia = test system: CCRF-CEM leukemia
# MALME-3M melanoma = test system: MALME-3M melanoma
# NCI-H460 lung = test system: NCI-H460 lung
# HOP-92 NSCLC = test system: HOP-92 NSCLC
# SF-539 CNS = test system: SF-539 CNS
# HCC-2998 colon = test system: HCC-2998 colon
# DU-145 prostate = test system: DU-145 prostate
# RPMI-8226 leukemia = test system: RPMI-8226 leukemia
# MCF7 breast = test system: MCF7 breast
# PC-3 prostate = test system: PC-3 prostate
# OVCAR-3 ovarian = test system: OVCAR-3 ovarian
# KM12 colon = test system: KM12 colon
# UO-31 renal = test system: UO-31 renal
# HS 578T breast = test system: HS 578T breast
# BT-549 breast = test system: BT-549 breast
smiles,measurement,setting,value
CN1CCN(Cc2ccc(NC(=O)c3cncc(C#Cc4cnc5ccc(OCCCS(C)(=O)=O)nn45)c3)cc2C(F)(F)F)CC1,GI50,M14 melanoma,0.171 µM
same,TGI,M14 melanoma,0.701 µM
same,GI50,HT29 colon,0.475 µM
same,TGI,HT29 colon,1.89 µM
same,GI50,TK-10 renal,1.13 µM
same,TGI,TK-10 renal,2.94 µM
same,GI50,U251 CNS,0.554 µM
same,TGI,U251 CNS,2.61 µM
same,GI50,SK-MEL-2 melanoma,0.216 µM
same,TGI,SK-MEL-2 melanoma,0.783 µM
same,GI50,786-0 renal,0.359 µM
same,TGI,786-0 renal,1.17 µM
same,GI50,ACHN renal,1.39 µM
same,TGI,ACHN renal,4.46 µM
same,GI50,HOP-62 NSCLC,0.833 µM
same,TGI,HOP-62 NSCLC,2.76 µM
same,GI50,SK-OV-3 ovarian,0.868 µM
same,TGI,SK-OV-3 ovarian,3.47 µM
same,GI50,NCI-H522 lung,0.46 µM
same,TGI,NCI-H522 lung,1.28 µM
same,GI50,SW-620 colon,0.193 µM
same,TGI,SW-620 colon,1.05 µM
same,GI50,CAKI-1 renal,0.459 µM
same,TGI,CAKI-1 renal,2.68 µM
same,GI50,A498 renal,0.863 µM
same,TGI,A498 renal,1.62 µM
same,GI50,COLO 205 colon,0.377 µM
same,TGI,COLO 205 colon,1.15 µM
same,GI50,IGROV1 ovarian,0.258 µM
same,TGI,IGROV1 ovarian,2.45 µM
same,GI50,HCT-116 colon,0.0673 µM
same,TGI,HCT-116 colon,0.594 µM
same,GI50,T-47D breast,0.783 µM
same,TGI,T-47D breast,12.2 µM
same,GI50,SNB-19 CNS,1.29 µM
same,TGI,SNB-19 CNS,4.46 µM
same,GI50,MDA-MB-231 breast,0.166 µM
same,TGI,MDA-MB-231 breast,1.05 µM
same,GI50,MOLT-4 leukemia,0.272 µM
same,TGI,MOLT-4 leukemia,3.71 µM
same,GI50,UACC-62 melanoma,0.571 µM
same,TGI,UACC-62 melanoma,1.52 µM
same,GI50,SK-MEL-5 melanoma,0.775 µM
same,TGI,SK-MEL-5 melanoma,1.74 µM
same,GI50,SR leukemia,0.207 µM
same,TGI,SR leukemia,1.47 µM
same,GI50,LOX IMVI melanoma,0.305 µM
same,TGI,LOX IMVI melanoma,1.02 µM
same,GI50,SF-295 CNS,1.09 µM
same,TGI,SF-295 CNS,4.77 µM
same,GI50,NCI-H23 lung,0.42 µM
same,TGI,NCI-H23 lung,1.56 µM
same,GI50,SK-MEL-28 melanoma,0.796 µM
same,TGI,SK-MEL-28 melanoma,2.55 µM
same,GI50,NCI-H226 lung,0.131 µM
same,TGI,NCI-H226 lung,1.03 µM
same,GI50,K-562 leukemia,0.0123 µM
same,TGI,K-562 leukemia,2.17 µM
same,GI50,SNB-75 CNS,0.338 µM
same,TGI,SNB-75 CNS,1.13 µM
same,GI50,OVCAR-4 ovarian,0.547 µM
same,TGI,OVCAR-4 ovarian,1.93 µM
same,GI50,RXF 393 renal,0.803 µM
same,TGI,RXF 393 renal,1.63 µM
same,GI50,OVCAR-8 ovarian,1 µM
same,TGI,OVCAR-8 ovarian,4.33 µM
same,GI50,HCT-15 colon,1.34 µM
same,TGI,HCT-15 colon,4.26 µM
same,GI50,NCI/ADR-RES ovarian,8.49 µM
same,TGI,NCI/ADR-RES ovarian,34.1 µM
same,GI50,MDA-MB-435,0.221 µM
same,TGI,MDA-MB-435,1 µM
same,GI50,A549 NSCLC,1.09 µM
same,TGI,A549 NSCLC,5.93 µM
same,GI50,OVCAR-5 ovarian,0.892 µM
same,TGI,OVCAR-5 ovarian,4.57 µM
same,GI50,HL-60(TB) leukemia,0.229 µM
same,TGI,HL-60(TB) leukemia,0.802 µM
same,GI50,SN12C renal,0.415 µM
same,TGI,SN12C renal,2.2 µM
same,GI50,UACC-257 melanoma,1.03 µM
same,TGI,UACC-257 melanoma,3.47 µM
same,GI50,EKVX NSCLC,1.12 µM
same,TGI,EKVX NSCLC,4.28 µM
same,GI50,SF-268 CNS,0.69 µM
same,TGI,SF-268 CNS,1.72 µM
same,GI50,CCRF-CEM leukemia,0.213 µM
same,TGI,CCRF-CEM leukemia,22.4 µM
same,GI50,MALME-3M melanoma,0.128 µM
same,TGI,MALME-3M melanoma,0.576 µM
same,GI50,NCI-H460 lung,0.311 µM
same,TGI,NCI-H460 lung,0.953 µM
same,GI50,HOP-92 NSCLC,0.101 µM
same,TGI,HOP-92 NSCLC,0.393 µM
same,GI50,SF-539 CNS,0.164 µM
same,TGI,SF-539 CNS,0.906 µM
same,GI50,HCC-2998 colon,0.687 µM
same,TGI,HCC-2998 colon,2.75 µM
same,GI50,DU-145 prostate,0.691 µM
same,TGI,DU-145 prostate,3.79 µM
same,GI50,RPMI-8226 leukemia,1.19 µM
same,TGI,RPMI-8226 leukemia,3.41 µM
same,GI50,MCF7 breast,0.213 µM
same,TGI,MCF7 breast,2.83 µM
same,GI50,PC-3 prostate,0.873 µM
same,TGI,PC-3 prostate,4.97 µM
same,GI50,OVCAR-3 ovarian,0.795 µM
same,TGI,OVCAR-3 ovarian,3.04 µM
same,GI50,KM12 colon,0.005 µM
same,TGI,KM12 colon,1.4 µM
same,GI50,UO-31 renal,1.33 µM
same,TGI,UO-31 renal,3.77 µM
same,GI50,HS 578T breast,0.318 µM
same,TGI,HS 578T breast,1.66 µM
same,GI50,BT-549 breast,0.469 µM
same,TGI,BT-549 breast,1.39 µM
